We go through two molecules from patent publication US12594262B2, “CAI nanoemulsions” (ForwardVue Pharma, Inc., priority 2019, dated 2026).

For data set [1] the following is noted: humans, single 5 mg peribulbar injection; cited from earlier work.
For data set [2] the following is noted: cited from earlier work.
The conditions of data set [3]: cited from earlier work. The source holds these as a separate data set.
For data set [4] the following is noted: cited from earlier work. The source holds these as a separate data set.
A short description of data set [5]: Stability of CAI to autoclave sterilization, RP-HPLC analysis with UV detection. The class given is physicochemical. The following applies: autoclaving, for instance 121° C. for about 30 minutes. As to the method:
Stable sterile formulations can then be prepared by autoclaving for sufficient time at temperatures suitable for effectively killing the microorganisms that may be present in the formulation, for instance, 121° C. for about 30 minutes.

For the molecule `C[C@@H]1C[C@H]2[C@@H]3CCC4=CC(=O)C=C[C@]4(C)[C@@]3(F)[C@@H](O)C[C@]2(C)[C@@]1(O)C(=O)CO` [Dexamethasone], the “concentration detected in the vitreous cavity” value in data set [1] was 0.013 µg/mL.

Turning to `NC(=O)c1nnn(Cc2cc(Cl)c(C(=O)c3ccc(Cl)cc3)c(Cl)c2)c1N` [CAI], the “toxic effects observed in clinical studies” value in data set [2] (doses required to achieve circulating levels projected for inhibition of pathological neovascularization) was “cerebellar ataxia, peripheral neuropathy and exacerbation of depression”. For the same molecule, the “serious side effect of clinical use” value in data set [2] (systemic administration, two cases described (Berlin et al. 2002)) was “loss of vision”. In addition, the physiological tissue concentrations in data set [3] is reported as 1-10 μM. Besides, the “plasma concentrations associated with unacceptable toxicity” value in data set [4] is recorded as “above 100 micromolar”. Also, in data set [5], the “decomposition of CAI or formation of new impurities after sterilization” value is “no decomposition of CAI or formation of new impurities could be detected”.
